Reference: patent US7427623B2, “4-Amino-2,3-disubstituted thieno[2,3-d]pyrimidines and pharmacetical compositions thereof” (SmithKline Beecham Corporation, priority 2001, dated 2008)

What was measured:
GST-VEGFR2 = biological target: T1, GST-VEGFR2 (Homo sapiens, UniProt P35968); test: VEGF-R2 Enzyme Assay (VEGF-E), LANCE method; type: biochemical; settings: GST-VEGFR2, 75 uM ATP; read-out: VEGF-E pIC50 (converted)
T1 construct: GST-VEGFR2, baculovirus expressed recombinant constructs of the intracellular domains of human TIE2 tagged by GST; made in house
T1 sequence (P35968 786-1356 limits assumed): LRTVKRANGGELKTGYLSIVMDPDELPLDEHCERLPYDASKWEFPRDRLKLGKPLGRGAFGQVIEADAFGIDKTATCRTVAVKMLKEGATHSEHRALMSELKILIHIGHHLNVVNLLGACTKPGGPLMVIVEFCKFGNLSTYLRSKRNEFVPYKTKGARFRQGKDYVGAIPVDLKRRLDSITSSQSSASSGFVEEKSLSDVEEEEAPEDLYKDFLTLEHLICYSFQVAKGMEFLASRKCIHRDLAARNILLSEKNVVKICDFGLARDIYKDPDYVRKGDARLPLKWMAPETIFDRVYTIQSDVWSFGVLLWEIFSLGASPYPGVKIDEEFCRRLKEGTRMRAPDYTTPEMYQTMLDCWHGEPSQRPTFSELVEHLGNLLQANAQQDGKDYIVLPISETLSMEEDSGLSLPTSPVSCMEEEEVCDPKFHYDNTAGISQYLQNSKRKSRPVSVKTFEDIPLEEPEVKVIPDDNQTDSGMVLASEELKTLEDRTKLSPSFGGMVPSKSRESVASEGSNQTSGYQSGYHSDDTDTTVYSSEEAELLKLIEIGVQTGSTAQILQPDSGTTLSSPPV
Protocol: VEGF-R2 Enzyme Assay (VEGF-E)
The VEGF enzyme assay used the LANCE method (Wallac) and GST-VEGFR2, baculovirus expressed recombinant constructs of the intracellular domains of human […] tagged by GST. […] The reaction was stopped by the addition of EDTA (final concentration 50 mM). […] The APC signal was measured using an ARVO multilabel counter (Wallac Berthold, Japan). The percent inhibition of activity was calculated relative to blank control wells. […] The IC50 values were converted to pIC50 values, i.e., −log IC50 in Molar concentration.

[1] = biological target: T2, TIE2 intracellular domain/c-fms extracellular domain (TIE2/c-fms) chimeric protein (Homo sapiens, UniProt Q02763); test: TIE-2 Autophosphorylation Assay (TIE2-C), ELISA; type: cell-based; settings: TIE2/c-fms expressing mouse 3T3 cells, MCSF activation, read-out: TIE2-C pIC50 (converted)
T2 construct: TIE2 intracellular domain/c-fms extracellular domain (TIE2/c-fms) chimeric protein; expressed in transfected cells; host or cells: mouse 3T3 cells
T2 sequence (Q02763 770-1124 limits assumed, change not shown): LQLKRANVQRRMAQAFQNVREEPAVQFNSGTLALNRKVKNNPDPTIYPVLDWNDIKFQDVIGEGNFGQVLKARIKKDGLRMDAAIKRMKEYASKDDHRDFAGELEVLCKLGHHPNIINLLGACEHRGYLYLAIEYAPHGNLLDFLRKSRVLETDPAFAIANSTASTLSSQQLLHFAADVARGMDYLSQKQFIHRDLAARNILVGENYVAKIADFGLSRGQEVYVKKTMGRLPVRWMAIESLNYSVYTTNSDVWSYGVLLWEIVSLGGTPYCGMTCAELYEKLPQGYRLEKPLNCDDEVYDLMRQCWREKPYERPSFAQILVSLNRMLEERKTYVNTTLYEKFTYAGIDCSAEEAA
T2 sequence (P07333 20-517 partner limits assumed): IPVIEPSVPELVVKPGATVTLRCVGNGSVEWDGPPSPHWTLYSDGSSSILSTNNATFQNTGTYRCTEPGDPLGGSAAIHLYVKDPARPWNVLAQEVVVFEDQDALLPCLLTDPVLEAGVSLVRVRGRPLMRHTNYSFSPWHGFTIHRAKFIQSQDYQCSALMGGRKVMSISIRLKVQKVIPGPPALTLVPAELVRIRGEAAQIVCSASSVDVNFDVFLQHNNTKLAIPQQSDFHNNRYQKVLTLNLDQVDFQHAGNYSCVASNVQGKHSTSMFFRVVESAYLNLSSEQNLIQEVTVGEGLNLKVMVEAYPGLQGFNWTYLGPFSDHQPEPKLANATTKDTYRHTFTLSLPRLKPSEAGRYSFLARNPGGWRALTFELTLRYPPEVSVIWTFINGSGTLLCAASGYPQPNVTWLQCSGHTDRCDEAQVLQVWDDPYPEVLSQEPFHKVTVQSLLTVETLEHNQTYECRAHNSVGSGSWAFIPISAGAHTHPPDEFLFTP
T2 sequence (P09603 33-190 partner limits assumed): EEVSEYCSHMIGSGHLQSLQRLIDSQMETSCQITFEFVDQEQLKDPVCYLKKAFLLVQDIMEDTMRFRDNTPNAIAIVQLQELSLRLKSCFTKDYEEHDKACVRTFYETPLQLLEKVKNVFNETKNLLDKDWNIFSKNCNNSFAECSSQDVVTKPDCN
Protocol: TIE-2 Autophosphorylation Assay (TIE2-C)
The TIE-2 autophosphorylation assay used an ELISA method and a TIE2 intracellular domain/c-fms extracellular domain (TIE2/c-fms) chimeric protein expressing mouse 3T3 cells. This assay measured the autophosphorylation level of TIE2 protein expressed in cells. The cells were cultured in high glucose DMEM (Sigma) containing 10% serum at 37° C. in a humidified 10% CO2, 90% air incubator. The test compound (diluted from a 10 mM stock in DMSO, final DMSO concentration was 0.1%) was incubated with TIE2/c-fms expressing cells for 1 hr in serum free DMEM in 96 well plates followed by the activation of TIE2/c-fms receptor using c-fms ligand, MCSF (macrophage colony stimulating factor). […] The cell extracts were transferred into Rat anti-c-fms antibody coated 96 well plates and incubated for 12 hrs at 4 degrees. The extracts were removed by aspiration and the plate was incubated with biotinylated anti-phosphotyrosine antibody, PT66 (Sigma) and then with HRP (Horseradish Peroxidase)-labeled streptavidin (PIERCE). The optical density at 450 nm derived from HRP catalyzed TMB was measured with an ARVO multilabel counter. (Wallac Berthold Japan). The percent inhibition of activity was calculated relative to blank control wells. […] The IC50 values were converted to pIC50 values, i.e., −log IC50 in Molar concentration.

[2] = tested on: Human umbilical cord endothelial cells (HUVEC); test: VEGF-Driven Cellular Proliferation Assay, BrdU Incorporation Assay (VEGF-C); type: cell-based; settings: Homo sapiens, read-out: VEGF-C pIC50 (converted)
Protocol: VEGF-Driven Cellular Proliferation Assay. BrdU Incorporation Assay (VEGF-C)
Human umbilical cord endothelial cells (HUVEC, Clonetics, CC2519) were passaged in Type I collagen-coated 100-mm petridishes in EGM-MV medium (Clonetics, CC3125) at 37 C in a humidified 5% CO2, 95% air incubator. […] After incubation overnight at 37° C., the media were replaced with 100 ul of M199 serum-free medium containing compounds at various concentrations with 0.6% DMSO and gentamicin. The compounds were diluted in serum-free M199 medium from 10 mM stock solutions prepared in 100% DMS0. […] The cells were pulsed with bromodeoxyuridine (BrdU at 10 uM in serum-free M199) at 37° C. for an additional 24 h. […] The optical density at 450 nm was measured with a multilabel counter (ARVO SX, Wallac). The percent inhibition of cell growth was calculated relative to blank control wells. […] The IC50 values were converted to pIC50 values, i.e., −log IC50 in Molar concentration.

[3] = biological target: T3, GST-TIE2 (intracellular domains of human TIE2) (Homo sapiens, UniProt Q02763); test: TIE-2 Enzyme assay (TIE2-E), LANCE method; type: biochemical; settings: GST-TIE2, 80 uM ATP, D1–15 peptide; read-out: TIE2-E pIC50 (converted)
T3 construct: made in house
T3 sequence (Q02763 762-1104): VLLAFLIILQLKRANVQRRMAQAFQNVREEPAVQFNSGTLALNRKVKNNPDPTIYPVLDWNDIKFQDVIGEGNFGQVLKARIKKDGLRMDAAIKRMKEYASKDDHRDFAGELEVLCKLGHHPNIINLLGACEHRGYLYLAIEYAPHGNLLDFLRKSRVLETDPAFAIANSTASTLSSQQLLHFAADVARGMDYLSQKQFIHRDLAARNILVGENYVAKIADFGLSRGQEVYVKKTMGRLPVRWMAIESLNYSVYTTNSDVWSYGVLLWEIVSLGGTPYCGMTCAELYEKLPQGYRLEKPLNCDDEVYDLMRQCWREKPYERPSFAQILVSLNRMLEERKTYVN
Protocol: TIE-2 Enzyme assay (TIE2-E)
Preactivated GST-TIE2 was incubated for 30 mins at room temperature in 96 well plates with 1 uM D1–15 peptide, 80 uM ATP, 10 mM MgCl2, 0.1 mg/ml BSA and the test compound (diluted from a 10 mM stock in DMSO, final DMSO concentration was 2.4%) in 1 mM HEPES (pH 7.4). The reaction was stopped by the addition of EDTA (final concentration 45 mM). Streptavidin linked-APC (allophycocyanin, Molecular Probe) and Europium-labeled anti-phosphorylated tyrosine antibody (Wallac) were then added at the final concentration of 17 ug/well and 2.1 ug/well, respectively. The APC signal was measured using an ARVO multilabel counter. (Wallac Berthold Japan). The percent inhibition of activity was calculated relative to blank control wells. […] The IC50 values were converted to pIC50 values, i.e., −log IC50 in Molar concentration.

Recombinant GST-Tie2 = biological target: T4, Recombinant GST-Tie2 (Homo sapiens, UniProt Q02763); test: Tie2 Fluorescence Polarization Kinase Activity Assay (TIE2-FP); type: biochemical; settings: 200 μM ATP, activated Tie2, fluorescence polarization
T4 construct: GST
T4 sequence (Q02763 23-1124): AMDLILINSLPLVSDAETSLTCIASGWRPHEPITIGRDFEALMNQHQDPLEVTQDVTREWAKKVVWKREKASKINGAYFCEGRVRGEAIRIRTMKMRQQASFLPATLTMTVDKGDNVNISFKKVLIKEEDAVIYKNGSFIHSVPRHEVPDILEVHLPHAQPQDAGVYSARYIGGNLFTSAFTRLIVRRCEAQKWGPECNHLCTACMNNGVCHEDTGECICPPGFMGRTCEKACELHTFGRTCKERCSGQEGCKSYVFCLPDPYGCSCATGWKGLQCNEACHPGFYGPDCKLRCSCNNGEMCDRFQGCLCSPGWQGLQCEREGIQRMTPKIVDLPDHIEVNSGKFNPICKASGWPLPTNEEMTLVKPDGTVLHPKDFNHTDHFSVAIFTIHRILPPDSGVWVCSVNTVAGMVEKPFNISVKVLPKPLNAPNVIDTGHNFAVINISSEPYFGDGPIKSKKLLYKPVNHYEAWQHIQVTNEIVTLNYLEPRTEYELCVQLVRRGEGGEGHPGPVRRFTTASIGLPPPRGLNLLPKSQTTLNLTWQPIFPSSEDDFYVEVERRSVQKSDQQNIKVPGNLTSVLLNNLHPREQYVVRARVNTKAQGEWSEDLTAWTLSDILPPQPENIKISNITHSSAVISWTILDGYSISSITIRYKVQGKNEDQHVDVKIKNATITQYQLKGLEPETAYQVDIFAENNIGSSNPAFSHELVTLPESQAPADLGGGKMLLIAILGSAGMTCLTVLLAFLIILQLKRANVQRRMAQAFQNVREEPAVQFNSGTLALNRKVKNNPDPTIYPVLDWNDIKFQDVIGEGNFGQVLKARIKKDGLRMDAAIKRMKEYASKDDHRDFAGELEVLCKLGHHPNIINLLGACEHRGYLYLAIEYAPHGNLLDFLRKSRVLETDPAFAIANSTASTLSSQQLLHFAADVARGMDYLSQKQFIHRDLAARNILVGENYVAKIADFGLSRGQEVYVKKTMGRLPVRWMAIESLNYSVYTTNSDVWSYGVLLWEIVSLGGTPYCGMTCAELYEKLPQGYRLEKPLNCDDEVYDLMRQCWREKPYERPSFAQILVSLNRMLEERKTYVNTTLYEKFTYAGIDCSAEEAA
Protocol: Tie2 Fluorescence Polarization Kinase Activity Assay: (TIE2-FP)
Activation of Recombinant Tie2 Activation:
Recombinant GST-Tie2 was activated by incubating the enzyme in 20 mM Tris-HCl, pH 7.5, 12 mM MgCl2, 100 mM NaCl, 20 μM sodium vanidate, 1 mM DTT and 300 μM ATP at room temperature for 2 hours. […] The activated enzyme was stored as aliquots at −80° C. in 20 mM Tris-HCl, pH 7.5 and 11 mM NaCl.
The final assay conditions were 50 mM HEPES, pH 7.5, 5% DMSO (when screening compounds), 200 μM ATP, 5 mM MgCl2, 1 mM DTT, 50 μM sodium vanidate, 1 nM activated enzyme, and 200 μM peptide. […] Panvera Anti-phosphotyrosine antibody (Cat#P2840) and PTK Green Tracer (Cat#P2842) were used to detect the phosphorylated peptide. […] IC50's were then determined from the % polarization using normal calculation methods.

| IC50 (GST-VEGFR2) [nM] | IC50 [1] [nM] | IC50 [3] [nM] | IC50 (Recombinant GST-Tie2) [nM] | Compound | IC50 [2] [nM] |
| --- | --- | --- | --- | --- | --- |
| < 100 | 100 to 1000 | 100 to 1000 |  | CNS(=O)(=O)c1cccc(-c2oc3ncnc(N)c3c2-c2ccc(-c3ccccc3)cc2)c1 [Example 200, 4-Amino-3-(4-biphenyl)-2-(3-(N-methylsulfonyl)phenyl)furo[2,3-d]pyrimidine] | 1000 to 10000 |
|  |  |  | 1.8 | Nc1ncnc2scc(-c3ccc(NC(=O)Nc4cc(C(F)(F)F)ccc4F)cc3)c12 [Example 276, 4-Amino-3-(4-((2-fluoro-5-(trifluoromethyl)phenyl)aminocarbonylamino)phenyl)thieno[2,3-d]pyrimidine] |  |
